What was measured:
B-Raf kinase = molecular target: T1, B-Raf kinase (Homo sapiens, UniProt P15056); test: Biochemical assay for B-Raf.1 (coupled pyruvate kinase/lactate dehydrogenase); conditions: read-out: BRAF.1 IC50
T1 construct: GST (N); purchased Sigma
In short: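 NADH oxidation followed at 340 nm in a pyruvate kinase/lactate dehydrogenase-coupled assay with 0.13 nM B-Raf, 30.1 nM MEK substrate, 1 mM ATP, pH 7.5 Tris buffer, 1% DMSO. Monitored 6 h at 30 °C; rate taken from 4–5 h. IC50 from four-parameter sigmoidal fit.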

A-Raf kinase = molecular target: T2, A-Raf kinase (Homo sapiens, UniProt P10398, Y301D/Y302D); test: Biochemical assay for A-Raf.1 (coupled pyruvate kinase/lactate dehydrogenase); conditions: read-out: ARAF.1 IC50
T2 construct: purchased Sigma
T2 sequence (P10398 with tags, fused parts or gaps Y301D/Y302D): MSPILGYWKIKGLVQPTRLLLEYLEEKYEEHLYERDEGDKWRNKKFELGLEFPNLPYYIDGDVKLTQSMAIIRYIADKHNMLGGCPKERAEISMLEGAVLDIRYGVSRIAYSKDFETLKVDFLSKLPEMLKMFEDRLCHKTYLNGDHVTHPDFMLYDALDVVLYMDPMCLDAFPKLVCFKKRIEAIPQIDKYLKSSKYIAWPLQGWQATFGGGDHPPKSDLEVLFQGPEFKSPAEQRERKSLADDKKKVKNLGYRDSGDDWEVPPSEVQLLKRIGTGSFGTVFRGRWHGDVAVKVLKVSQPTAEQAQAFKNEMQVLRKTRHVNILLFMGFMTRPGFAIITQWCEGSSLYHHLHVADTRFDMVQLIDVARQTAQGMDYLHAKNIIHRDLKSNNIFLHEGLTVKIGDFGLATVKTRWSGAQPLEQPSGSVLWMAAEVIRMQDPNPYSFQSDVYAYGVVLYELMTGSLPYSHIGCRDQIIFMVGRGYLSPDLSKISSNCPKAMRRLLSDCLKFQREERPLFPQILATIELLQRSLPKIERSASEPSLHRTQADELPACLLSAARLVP
In short: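 A-Raf (5.55 nM) phosphorylating 30.1 nM MEK with 1 mM ATP was monitored by pyruvate kinase/lactate dehydrogenase-coupled NADH oxidation at 340 nm for 6 h at 30° C, in pH 7.5 Tris buffer with 15 mM MgCl2, 1% DMSO. Rates from 4–5 h gave percent inhibition; IC50 by four-parameter fit.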

A375 cells = test: A375 cell proliferation assay (1), resazurin, 96-well; format: cell-based; conditions: Homo sapiens, A-375, inhibition of cell proliferation
In short: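 Viability was read by resazurin fluorescence at 540 nm excitation and 600 nm emission, using a 440 μM solution added for 5–6 h at the end of culture. IC50 came from the curve fit.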

WM3928 cells = test: WM3928 cell proliferation assay (1), resazurin, 96-well; format: cell-based; conditions: inhibition of cell proliferation
In short: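 IC50 was derived from resazurin fluorescence (ex 540, em 600 nm) after a 6–7 h dye incubation. Before that, cells had 67–72 h of compound exposure at 37 °C, 5% CO2.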

T1 sequence (P15056 416-766): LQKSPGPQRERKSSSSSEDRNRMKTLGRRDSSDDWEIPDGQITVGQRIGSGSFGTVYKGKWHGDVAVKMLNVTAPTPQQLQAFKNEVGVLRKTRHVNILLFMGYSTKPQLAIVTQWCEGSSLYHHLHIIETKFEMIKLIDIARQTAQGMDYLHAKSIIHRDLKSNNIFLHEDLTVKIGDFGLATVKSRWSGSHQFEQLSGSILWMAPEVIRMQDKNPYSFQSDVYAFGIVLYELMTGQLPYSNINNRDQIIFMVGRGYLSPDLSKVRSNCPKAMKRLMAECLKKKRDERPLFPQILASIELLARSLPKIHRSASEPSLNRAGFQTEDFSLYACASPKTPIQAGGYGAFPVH

Row | IC50 (B-Raf kinase) [µM] | IC50 (A-Raf kinase) [µM] | IC50 (A375 cells) [µM] | SMILES | IC50 (WM3928 cells) [µM]
1 | ≤ 0.1 | > 1 | 0.5 to 1 | Cc1ccc(NC(=O)N2CC[C@@H](C)C2)cc1-c1cncc(-c2cc(NC(=O)C3CC3)ncn2)c1 [Example 219] | 0.5 to 1
2 | ≤ 0.1 | 0.1 to 0.5 | ≤ 0.1 | Cc1ccc(NC(=O)N2CC[C@H](C(C)C)C2)cc1-c1cncc(-c2cc(NC(=O)C3CC3)ncn2)c1 [Example 221] | ≤ 0.1
3 | ≤ 0.1 | > 1 | 0.1 to 0.5 | COC(=O)Nc1cc(-c2cc(-c3cc(NC(=O)N4CCC(C(F)(F)F)C4)ccc3C)cc(OCCO)n2)ccn1 (centres unmarked) [Example 222] | ≤ 0.1
4 | ≤ 0.1 | > 1 | 1 to 10 | COC(=O)Nc1cc(-c2cc(-c3cc(NC(=O)N4CC[C@H](C(F)(F)F)C4)ccc3C)nc(C)n2)ccn1 [Example 223] | 1 to 10

The remaining lines, values behind:

Row | SMILES | IC50 (B-Raf kinase) [µM] | IC50 (A-Raf kinase) [µM] | IC50 (A375 cells) [µM] | IC50 (WM3928 cells) [µM]
5 | CNC(=O)c1cc(-c2cncc(-c3cc(NC(=O)N4CC[C@H](C(F)(F)F)C4)c(F)cc3C)c2)ccn1 [Example 214] | 0.5 to 1 | > 1 | 1 to 10 | 1 to 10
6 | Cc1cc(F)c(NC(=O)N2CC[C@H](C(F)(F)F)C2)cc1-c1cncc(-c2cc(NC(=O)C3CC3)ncn2)c1 [Example 216] | ≤ 0.1 | 0.1 to 0.5 | 0.1 to 0.5 | ≤ 0.1
7 | Cc1ccc(NC(=O)N2CC[C@@H](C(C)C)C2)cc1-c1cncc(-c2cc(NC(=O)C3CC3)ncn2)c1 [Example 217] | ≤ 0.1 | 0.1 to 0.5 | ≤ 0.1 | ≤ 0.1
8 | Cc1ccc(NC(=O)N2CCC3(CC3)C2)cc1-c1cncc(-c2cc(NC(=O)C3CC3)ncn2)c1 [Example 218] | ≤ 0.1 | > 1 | 0.1 to 0.5 | 0.1 to 0.5
